pIC50: −log10 of the molar value.
Tested on: biosynthesis of cholesterol
Assay: CSI screen (cholesterol synthesis inhibition) as disclosed in U.S. Pat. No. 4,681,893
Assay type: biochemical
Source text: The compounds according to present invention and especially according to the compound of the formula I inhibit the biosynthesis of cholesterol as found in the CSI screen that is disclosed in U.S. Pat. No. 4,681,893 which is now also incorporated by reference therefor. The CSI data of the compound I, its enantiomer the compound II and the racemate of these two compounds are as follows: […]

CC(C)c1c(C(=O)Nc2ccccc2)c(-c2ccccc2)c(-c2ccc(F)cc2)n1CC[C@@H](O)C[C@@H](O)CC(=O)O (single isomer, unassigned) [[R—(R*R*)] isomer, [R-(R*,R*)]-2-(4-fluorophenyl)-β,δ-dihydroxy-5-(1-methylethyl)-3-phenyl-4-[(phenylamino)carbonyl]-1H-pyrrole-1-heptanoic acid]
pIC50: 8.36

CC(C)c1c(C(=O)Nc2ccccc2)c(-c2ccccc2)c(-c2ccc(F)cc2)n1CCC(O)CC(O)CC(=O)O (single isomer, unassigned) [[S—(R*R*)] isomer]
pIC50: 6.36

Reference: patent publication USRE40667E1, “[R-(R*R*)]-2-(4-fluorophenyl)-β,δ-dihydroxy-5-(1-methylethyl-3-phenyl-4-[(phenylamino)carbonyl]-1H-pyrrole-1-heptanoic acid, its lactone form and salts thereof” (Warner-Lambert Company LLC, priority 1989, dated 2009)
